From patent US6716613B1, “Metalloprotease having aggrecanase activity” (Yamanouchi Pharmaceutical Co., Ltd., priority 1999, dated 2004) come the findings set out here.

Assay [1] has as its system rabbit knee joint cartilage primary culture cells. Description: Proteoglycan degradation/release in rabbit knee joint cartilage primary culture cells (35S label). In kind it is cell-based. The protocol: After killing a rabbit (Japanese white species, male, 1.0 to 1.5 kg) under excess anesthesia, a knee joint was excised and the cartilage layer on the joint surface was removed and finely cut using a surgical knife. The cut pieces were treated with trypsin-EDTA (0.25%-1 mM; mfd. by GIBCO-BRL) at 37° C. for 1 hour and then centrifuged at 1,500 rpm for 5 minutes, and the resulting precipitate was washed with DMEM. This was treated with collagenase A (0.15%; Boehringer-Mannheim)/DMEM at 37° C. for 3 to 4 hours, and then a nylon mesh filter (100 μm, mfd. by Falcon)-passed fraction was centrifuged at 1,500 rpm for 5 minutes to effect precipitation of cartilage cells. The cells were thoroughly washed with DMEM/10% FBS medium, suspended in DMEM/10% FBS medium to a density of 2×10^5 cells/ml and then inoculated in 200 μl/well portions into an I type collagen-coated 96 well plate (mfd. by Asahi Technoglass). Three days thereafter, the medium was changed to 200 μof DMEM/10% FBS medium containing 50 μg/ml of ascorbic acid (ascorbic acid medium hereinafter), and the culturing was continued for 3 days. When an I type collagen-coated 6 well plate (Asahi Technoglass) was used, the cell suspension was inoculated in 6 ml/well portions and cultured by carrying out the same medium exchange. These cells were used in the following test.
The rabbit knee joint cartilage primary culture cells of 96 well plate described in Example 11-1 were cultured for 2 days using 200 μl of the ascorbic acid medium supplemented with 10 μCi/ml in final concentration of Na2^35SO4 and labeled therewith, washed 3 times with 200 μl of the ascorbic acid medium and then cultured for 1 day using 200 μl of the ascorbic acid medium. After stimulation with IL-1β or all-trans retinoic acid and subsequent 0, 24, and 48 hours of culturing, the culture supernatants were recovered in 20 μl portions, and the radioactivity was measured using Top Count (mfd. by Packard).
Each of the compounds A, B, C and D selected by the screening system of Example 10-2 was added to the proteoglycan degradation system of rabbit knee joint cartilage primary culture cells just before the stimulation with 10 μM of all-trans retinoic acid, and their proteoglycan degradation inhibitory activities were examined.

A further assay addresses T1, MDTS6Cys (Homo sapiens, UniProt Q8TE58).
T1 construct: made in house; host or cells: HEK293-EBNA cells; unpurified culture supernatant used as enzyme source
T1 sequence (Q8TE58 213-687): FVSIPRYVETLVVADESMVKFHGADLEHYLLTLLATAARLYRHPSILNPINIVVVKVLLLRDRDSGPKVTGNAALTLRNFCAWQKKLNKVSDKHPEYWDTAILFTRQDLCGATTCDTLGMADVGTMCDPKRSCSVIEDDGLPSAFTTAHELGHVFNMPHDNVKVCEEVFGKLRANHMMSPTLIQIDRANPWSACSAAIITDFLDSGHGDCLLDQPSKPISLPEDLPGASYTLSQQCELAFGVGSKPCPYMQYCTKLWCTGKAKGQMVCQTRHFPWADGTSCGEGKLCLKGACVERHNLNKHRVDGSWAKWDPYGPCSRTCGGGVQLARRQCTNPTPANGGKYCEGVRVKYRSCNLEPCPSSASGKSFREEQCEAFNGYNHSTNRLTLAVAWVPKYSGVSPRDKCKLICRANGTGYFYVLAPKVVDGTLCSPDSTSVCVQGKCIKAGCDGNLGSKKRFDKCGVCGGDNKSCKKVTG
The assay can be described thus: ELISA screening system for aggrecanase activity inhibition (anti-aggrecanase neoepitope antibody). It counts as biochemical. Particulars: MDTS6Cys culture supernatant, recombinant aggrecan G1G2 substrate, 37° C. for several hours; read-out: aggrecanase activity inhibition strength (IC50). (In an ELISA, binding on a coated surface is turned into a signal by an enzyme label.)

Assay [2] deals with MDTS6 mRNA. The assay can be described thus: Expression induction of MDTS6 mRNA in ATDC5 cells (RT-PCR). In kind it is cell-based, mouse. Particulars: insulin-differentiated, IL-1β 5 ng/ml for 0, 1, 2, 4 or 8 hours. The protocol: It is known that a mouse cell strain ATDC5 is differentiated into a chondrocyte-like cell by insulin treatment (Atsumi T. et al., Cell Differ. Dev., 30, 109-116, 1990). The ATDC5 cells were inoculated in 4×10^5/well portions into an I type collagen-coated 6 well plate (mfd. by Asahi Technoglass) and cultured for 2 days using DMEM/HamF12 (1:1)/5% FCS medium, the medium was changed to DMEM/HamF12 (1:1)/5% FCS medium containing insulin (final concentration 30 ng/ml) and 50 μg/ml of L-ascorbic acid and the culturing was continued for 5 days, and then the resulting cells were treated for 0, 1, 2, 4 or 8 hours by adding IL-1β (final concentration 5 ng/ml). Total RNA was prepared from each of the treated groups using ISOGEN (mfd. by Nippon Gene), and RT-PCR was carried out using 1 μg portion thereof as the template and using BcaBEST™ RNA PCR Kit (mfd. by Takara Shuzo). The reverse transcription reaction was carried out using Oligo dT-Adaptor Primer as the primer in accordance with the attached instructions, and PCR was carried out using oligoDNA sequences represented by SEQ ID NO:15 and SEQ ID NO:16 as primers, which had been synthesized based on the 3′ non-translation region of MDTS6, by the reaction of 94° C. for 2 minutes, 40 repetitions of a cycle of 94° C. for 30 seconds, 60° C. for 30 seconds and 72° C. for 30 seconds, and subsequent 72° C. for 7 minutes. […]

The test system of assay [3] is MDTS6 mRNA. The assay can be described thus: Induction of MDTS6 mRNA expression in rabbit knee joint cartilage primary culture cells (RT-PCR). It counts as cell-based. The note with it: 10 ng/ml of IL-1β or 10 μM of all-trans retinoic acid; 2 and 6 hours. The protocol: After 3 days of culturing of the rabbit knee joint cartilage primary culture cells of 6 well plate described in Example 11-1 by changing the medium to ascorbic acid medium, 10 ng/ml of IL-1β or 10 μM of all-trans retinoic acid was added thereto, and total RNA samples 2 and 6 hours thereafter were prepared using ISOGEN (mfd. by Nippon Gene) in accordance with the attached instructions. Each of the samples was treated with DNase I (mfd. by Nippon Gene), subjected to phenol/chloroform treatment and then recovered by ethanol precipitation, and the thus purified total RNA was dissolved in DEPC-treated sterile water. Using random hexamers as primers, 1 μg of this total RNA was subjected to reverse transcription reaction and RNase H treatment using Thermoscript™ RT-PCR System (mfd. by GIBCO-BRL, catalog number 11146-016) in accordance with the attached instructions, and the product was diluted 10 times with sterile water and used as a cDNA sample. Using 5 μl of each of the thus obtained cDNA samples as the template and the oligoDNA sequences represented by SEQ ID NO:18 and SEQ ID NO:19 as primers, PCR was carried out under a condition of 94° C. for 2 minutes, 45 repetitions of a cycle of 94° C. for 30 seconds, 65° C. for 30 seconds and 72° C. for 30 seconds, and subsequent 72° C. for 10 minutes. […]

Procedure for MDTS6Cys: The criterion to screen a substance which inhibits the aggrecanase activity is preferably 10 μM or less, more preferably 1.0 μM or less, as inhibition activity strength (IC50)

The term IC50 denotes the concentration at which inhibition is half-maximal. Take `CNC(=O)[C@H](Cc1ccccc1)NC(=O)C(CC(C)C)C(CS)C(=O)NO` (stereo partly drawn) [compound B, N^α-[2-(1-hydroxycarbamoyl-2-sulfanylethyl)-4-methylpentanoyl]-N-methylphenylalanineamide]: in assay [1] (compound added just before stimulation with 10 μM of all-trans retinoic acid), the “inhibition of proteoglycan degradation (in words, FIG. 8)” value is recorded as “inhibition of proteoglycan degradation in a concentration-dependent manner”. Besides, the IC50 on MDTS6Cys came to 1000 nM.
Turning to “IL-1β: cytokine used to stimulate proteoglycan release and MDTS6 mRNA expression”, the results for the “expression of the MDTS6 mRNA” value in the assay on MDTS6 mRNA [2] and in the assay on MDTS6 mRNA [3] were “transiently induced” and “induced”, respectively. For the same molecule, the “release of proteoglycan (increase in radioactivity of culture supernatant)” value in assay [1] (stimulation with 0.01 to 10 ng/ml IL-1β or 0.1 to 10 μM all-trans retinoic acid, 0, 24, 48 hours of culturing) is given as “increase in the radioactivity, namely release of proteoglycan, was observed”.
